Measured values: PubChem BioAssay AID1963965 (Molecular Pharmacology Branch, DTP, NCI, 2024)

Test system: 996289-038-R-J1-PDC spheroid viability
Experiment: Anticancer human tumor 996289-038-R-J1-PDC patient-derived colon adenocarcinoma cell line growth inhibition [PI3K]
Details: spheroids with HUVEC and MSC; for IC50: curve of first compound; for viability, T/C: stronger effect = lower value
How it was run: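 Combination activity was assessed by viability in multicellular tumor spheroids carrying HUVEC and MSC components. Agents were tested with PI3K inhibitors from a Cmax-based top dose (or 10 microM) downward in half-log increments.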

[1] = second compound 0.0316 µM, first compound 0.0316 µM
[2] = second compound 0.0316 µM, first compound 0.1 µM
[3] = second compound 0.0316 µM, first compound 0.316 µM
[4] = second compound 0.0316 µM, first compound 1 µM
[5] = second compound 0.0316 µM, first compound 3.16 µM
[6] = second compound 0.0316 µM, first compound 10 µM
[7] = second compound 0.1 µM, first compound 0.0316 µM
[8] = second compound 0.1 µM, first compound 0.1 µM
[9] = second compound 0.1 µM, first compound 0.316 µM
[10] = second compound 0.1 µM, first compound 1 µM
[11] = second compound 0.1 µM, first compound 3.16 µM
[12] = second compound 0.1 µM, first compound 10 µM
[13] = second compound 0.316 µM, first compound 0.0316 µM
[14] = second compound 0.316 µM, first compound 0.1 µM
[15] = second compound 0.316 µM, first compound 0.316 µM
[16] = second compound 0.316 µM, first compound 1 µM
[17] = second compound 0.316 µM, first compound 3.16 µM
[18] = second compound 0.316 µM, first compound 10 µM
[19] = second compound 1 µM, first compound 0.0316 µM
[20] = second compound 1 µM, first compound 0.1 µM
[21] = second compound 1 µM, first compound 0.316 µM
[22] = second compound 1 µM, first compound 1 µM
[23] = second compound 1 µM, first compound 3.16 µM
[24] = second compound 1 µM, first compound 10 µM
[25] = second compound 3.16 µM, first compound 0.0316 µM
[26] = second compound 3.16 µM, first compound 0.1 µM
[27] = second compound 3.16 µM, first compound 0.316 µM
[28] = second compound 3.16 µM, first compound 1 µM
[29] = second compound 3.16 µM, first compound 3.16 µM
[30] = second compound 3.16 µM, first compound 10 µM
[31] = second compound 10 µM, first compound 0.0316 µM
[32] = second compound 10 µM, first compound 0.1 µM
[33] = second compound 10 µM, first compound 0.316 µM
[34] = second compound 10 µM, first compound 1 µM
[35] = second compound 10 µM, first compound 3.16 µM
[36] = second compound 10 µM, first compound 10 µM
[37] = second compound 0.00316 µM, first compound 0.0316 µM
[38] = second compound 0.00316 µM, first compound 0.1 µM
[39] = second compound 0.00316 µM, first compound 0.316 µM
[40] = second compound 0.00316 µM, first compound 1 µM
[41] = second compound 0.00316 µM, first compound 3.16 µM
[42] = second compound 0.00316 µM, first compound 10 µM
[43] = second compound 0.01 µM, first compound 0.0316 µM
[44] = second compound 0.01 µM, first compound 0.1 µM
[45] = second compound 0.01 µM, first compound 0.316 µM
[46] = second compound 0.01 µM, first compound 1 µM
[47] = second compound 0.01 µM, first compound 3.16 µM
[48] = second compound 0.01 µM, first compound 10 µM
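Also: spheroids exposed to compounds for seven days before viability read.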
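For viability, T/C in this document: luminescence used as a proxy for viable cell amount; percent viability relative to DMSO vehicle control as 100%.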

C=CC(=O)N1CCN(c2nc(=O)n(-c3c(C)ccnc3C(C)C)c3nc(-c4c(O)cccc4F)c(F)cc23)C(C)C1 (stereo not drawn) + Cc1nc(NC(=O)N2CCCC2C(N)=O)sc1-c1ccnc(C(C)(C)C(F)(F)F)c1
IC50 (second compound 0.0316 µM): > 10 µM
IC50 (second compound 0.1 µM): > 10 µM
IC50 (second compound 0.316 µM): > 10 µM
IC50 (second compound 1 µM): > 10 µM
IC50 (second compound 3.16 µM): > 10 µM
IC50 (second compound 10 µM): 0.0454 µM
viability, T/C [1]: 91.4%
viability, T/C [2]: 107%
viability, T/C [3]: 111%
viability, T/C [4]: 116%
viability, T/C [5]: 115%
viability, T/C [6]: 114%
viability, T/C [7]: 87.5%
viability, T/C [8]: 90.4%
viability, T/C [9]: 90.5%
viability, T/C [10]: 96.7%
viability, T/C [11]: 122%
viability, T/C [12]: 93.5%
viability, T/C [13]: 79.8%
viability, T/C [14]: 95.2%
viability, T/C [15]: 94.7%
viability, T/C [16]: 83.6%
viability, T/C [17]: 97.5%
viability, T/C [18]: 89.9%
viability, T/C [19]: 88.6%
viability, T/C [20]: 85.8%
viability, T/C [21]: 75.6%
viability, T/C [22]: 87.5%
viability, T/C [23]: 77.6%
viability, T/C [24]: 80.1%
viability, T/C [25]: 59.5%
viability, T/C [26]: 71.7%
viability, T/C [27]: 74.7%
viability, T/C [28]: 61.6%
viability, T/C [29]: 64.4%
viability, T/C [30]: 59.5%
viability, T/C [31]: 50.5%
viability, T/C [32]: 50.7%
viability, T/C [33]: 43.2%
viability, T/C [34]: 40.6%
viability, T/C [35]: 48.8%
viability, T/C [36]: 47.4%

CNC(=O)c1ccc(N2C(=S)N(c3ccc(C#N)c(C(F)(F)F)c3)C(=O)C2(C)C)cc1F + CC(Nc1ccc2c(c1)OCCn1cc(N3C(=O)OCC3C(F)F)nc1-2)C(N)=O
IC50 (second compound 0.00316 µM): > 10 µM
IC50 (second compound 0.01 µM): > 10 µM
IC50 (second compound 0.0316 µM): > 10 µM
IC50 (second compound 0.1 µM): > 10 µM
IC50 (second compound 0.316 µM): > 10 µM
IC50 (second compound 1 µM): > 10 µM
viability, T/C [37]: 82.9%
viability, T/C [38]: 95.5%
viability, T/C [39]: 103%
viability, T/C [40]: 93.1%
viability, T/C [41]: 89%
viability, T/C [42]: 110%
viability, T/C [43]: 100%
viability, T/C [44]: 88.6%
viability, T/C [45]: 100%
viability, T/C [46]: 88.2%
viability, T/C [47]: 98.2%
viability, T/C [48]: 102%
viability, T/C [1]: 98.3%
viability, T/C [2]: 81.9%
viability, T/C [3]: 80.1%
viability, T/C [4]: 87.9%
viability, T/C [5]: 92.1%
viability, T/C [6]: 86.4%
viability, T/C [7]: 79.4%
viability, T/C [8]: 85.4%
viability, T/C [9]: 80.5%
viability, T/C [10]: 77.8%
viability, T/C [11]: 92.9%
viability, T/C [12]: 72%
viability, T/C [13]: 65.1%
viability, T/C [14]: 70.8%
viability, T/C [15]: 73.3%
viability, T/C [16]: 74.2%
viability, T/C [17]: 70.3%
viability, T/C [18]: 64%
viability, T/C [19]: 55.5%
viability, T/C [20]: 59.3%
viability, T/C [21]: 60.4%
viability, T/C [22]: 61.5%
viability, T/C [23]: 51.9%
viability, T/C [24]: 53.5%

Cn1ncc(Cl)c1-c1cc(C(=O)NC(CN)Cc2cccc(F)c2)sc1Cl (stereo not drawn) + CC(Nc1ncnc2nc[nH]c12)c1cc2cccc(Cl)c2c(=O)n1-c1ccccc1
IC50 (second compound 0.0316 µM): > 10 µM
IC50 (second compound 0.1 µM): > 10 µM
IC50 (second compound 0.316 µM): > 10 µM
IC50 (second compound 1 µM): 9.38 µM
IC50 (second compound 3.16 µM): 7.97 µM
IC50 (second compound 10 µM): 5.1 µM
viability, T/C [1]: 92.2%
viability, T/C [2]: 92.1%
viability, T/C [3]: 81.2%
viability, T/C [4]: 71.6%
viability, T/C [5]: 70.6%
viability, T/C [6]: 61.2%
viability, T/C [7]: 102%
viability, T/C [8]: 88.5%
viability, T/C [9]: 83.5%
viability, T/C [10]: 73.9%
viability, T/C [11]: 69.1%
viability, T/C [12]: 54.2%
viability, T/C [13]: 102%
viability, T/C [14]: 98.8%
viability, T/C [15]: 85.2%
viability, T/C [16]: 73.3%
viability, T/C [17]: 69.7%
viability, T/C [18]: 49.3%
viability, T/C [19]: 108%
viability, T/C [20]: 97.5%
viability, T/C [21]: 90.2%
viability, T/C [22]: 91.7%
viability, T/C [23]: 71.2%
viability, T/C [24]: 48.3%
viability, T/C [25]: 85.6%
viability, T/C [26]: 94%
viability, T/C [27]: 88.6%
viability, T/C [28]: 85%
viability, T/C [29]: 67.6%
viability, T/C [30]: 45.7%
viability, T/C [31]: 84.1%
viability, T/C [32]: 91.2%
viability, T/C [33]: 92%
viability, T/C [34]: 79%
viability, T/C [35]: 58.1%
viability, T/C [36]: 39.2%

Cn1ncc(Cl)c1-c1cc(C(=O)NC(CN)Cc2cccc(F)c2)sc1Cl (stereo not drawn) + CC(Nc1ccc2c(c1)OCCn1cc(N3C(=O)OCC3C(F)F)nc1-2)C(N)=O
IC50 (second compound 0.00316 µM): > 10 µM
IC50 (second compound 0.01 µM): 7.33 µM
IC50 (second compound 0.0316 µM): 4.62 µM
IC50 (second compound 0.1 µM): 1.84 µM
IC50 (second compound 0.316 µM): 1.83 µM
IC50 (second compound 1 µM): 0.352 µM
viability, T/C [37]: 83.3%
viability, T/C [38]: 82.9%
viability, T/C [39]: 84.3%
viability, T/C [40]: 80%
viability, T/C [41]: 60%
viability, T/C [42]: 54.5%
viability, T/C [43]: 111%
viability, T/C [44]: 97%
viability, T/C [45]: 83.8%
viability, T/C [46]: 73.7%
viability, T/C [47]: 58.6%
viability, T/C [48]: 46.5%
viability, T/C [1]: 87.2%
viability, T/C [2]: 84.2%
viability, T/C [3]: 76.6%
viability, T/C [4]: 64.8%
viability, T/C [5]: 61.3%
viability, T/C [6]: 35.5%
viability, T/C [7]: 77.8%
viability, T/C [8]: 80.2%
viability, T/C [9]: 63.9%
viability, T/C [10]: 56%
viability, T/C [11]: 46%
viability, T/C [12]: 33.6%
viability, T/C [13]: 66.9%
viability, T/C [14]: 59.6%
viability, T/C [15]: 75.7%
viability, T/C [16]: 55.3%
viability, T/C [17]: 43.2%
viability, T/C [18]: 28.9%
viability, T/C [19]: 53.5%
viability, T/C [20]: 52.6%
viability, T/C [21]: 52.6%
viability, T/C [22]: 43.9%
viability, T/C [23]: 38.4%
viability, T/C [24]: 25.8%
